Activity calls are given as the source filed them.
Tests used:
[1] = HGIII-sPLA2 enzyme inhibition potency – biochemical, QFRET, IC50, dose response (AID 743457);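 note: green fluorescence rise as the enzyme cleaves BODIPY PC-A2 in liposomes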
[2] = HIV-1 AD8 envelope cell-cell fusion blockers – cherry-pick, dose response (AID 652062); format: functional, cell-based;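 note: luciferase signal from cell-cell fusion driven by HIV-1 clade B AD8 Env; potency is for inhibitors of fusion seen as a drop in luminescence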
[3] = off-target signal loss in HeLa-CEM21 co-culture – HeLa F-luc CTL cells, cherry-picked, counter-screen for HIV-1 Env fusion inhibitor project, dose response (AID 652040); format: functional, cell-based;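 note: potency for signal decrease marking cytotoxic or nonspecific inhibition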
[4] = blockers of HIV-1 envelope-mediated cell-cell fusion – cherry-pick, dose response (AID 652057); format: functional, cell-based
[5] = viability loss in CEM21 cells – cell-based, CellTiter-Glo luminescence, cherry-picked, cytotoxicity control for viral fusion inhibitor project, dose response (AID 652042); format: functional;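 note: potency for signal decrease meaning cytotoxicity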
[6] = blockers of HIV-1 ZM109 envelope-driven cell-cell fusion – HeLa effector, CEM target cells, luciferase, cherry-pick, dose response (AID 652058); format: functional, cell-based;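 note: luciferase signal from HIV-1 Env mediated cell-cell fusion of effector and target cells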
Orexin receptor type 2 [7] = target: T1, Orexin receptor type 2 (Homo sapiens, UniProt O43614); experiment: Counterscreen assay for antagonists of the orexin 1 receptor (OX1R; HCRTR1): Fluorescence-based cell-based dose response assay for antagonists of the orexin 2 receptor (OX2R; HCRTR2), run by assay provider.; format: functional
T1 sequence (O43614 whole entry): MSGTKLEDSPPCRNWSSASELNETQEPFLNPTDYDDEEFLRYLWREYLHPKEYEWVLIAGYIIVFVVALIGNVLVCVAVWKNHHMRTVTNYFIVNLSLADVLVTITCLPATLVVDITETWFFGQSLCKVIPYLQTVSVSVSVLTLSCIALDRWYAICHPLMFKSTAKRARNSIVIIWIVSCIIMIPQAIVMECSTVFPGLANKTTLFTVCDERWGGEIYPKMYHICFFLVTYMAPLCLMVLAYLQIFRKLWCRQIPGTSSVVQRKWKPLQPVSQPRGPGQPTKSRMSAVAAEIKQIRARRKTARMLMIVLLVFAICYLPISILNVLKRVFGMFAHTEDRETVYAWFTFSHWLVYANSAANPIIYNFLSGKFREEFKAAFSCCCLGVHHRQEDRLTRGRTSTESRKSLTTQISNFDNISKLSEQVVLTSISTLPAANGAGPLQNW

X-box-binding protein 1 = target: T2, X-box-binding protein 1 (Homo sapiens, UniProt P17861); format: functional, Cricetulus griseus;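 note: confirmatory dose-response counter-screen serving a CHOP assay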
T2 sequence (P17861 whole entry): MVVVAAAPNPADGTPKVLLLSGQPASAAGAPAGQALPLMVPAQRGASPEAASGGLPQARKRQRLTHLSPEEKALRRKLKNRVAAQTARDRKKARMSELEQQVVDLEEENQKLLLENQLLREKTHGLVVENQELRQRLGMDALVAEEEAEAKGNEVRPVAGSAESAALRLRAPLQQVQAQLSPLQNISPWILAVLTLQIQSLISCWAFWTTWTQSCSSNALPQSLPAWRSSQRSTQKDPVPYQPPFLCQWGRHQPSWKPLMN

CHO-K1 = experiment: (§1) Counterscreen for antagonists of the orexin 1 receptor (OX1R; HCRTR1): Homogeneous time resolved fluorescence (HTRF)-based cell-based dose response assay to identify antagonists of the parental CHO-K1 cell line. [Related pubchem assays (depositor defined):AID434989, AID435008, AID463079, AID485270, AID492963, AID492964, AID492965, AID493232, AID504699, AID504701]; format: functional; conditions: Cricetulus griseus
Insulin-degrading enzyme [8] = target: T3, Insulin-degrading enzyme (Homo sapiens, UniProt P14735); experiment: recombinant IDE activation, cell-free – biochemical, fluorescence polarization, counter-screen for IDE activator project, dose response (AID 588681)
T3 sequence (P14735 whole entry): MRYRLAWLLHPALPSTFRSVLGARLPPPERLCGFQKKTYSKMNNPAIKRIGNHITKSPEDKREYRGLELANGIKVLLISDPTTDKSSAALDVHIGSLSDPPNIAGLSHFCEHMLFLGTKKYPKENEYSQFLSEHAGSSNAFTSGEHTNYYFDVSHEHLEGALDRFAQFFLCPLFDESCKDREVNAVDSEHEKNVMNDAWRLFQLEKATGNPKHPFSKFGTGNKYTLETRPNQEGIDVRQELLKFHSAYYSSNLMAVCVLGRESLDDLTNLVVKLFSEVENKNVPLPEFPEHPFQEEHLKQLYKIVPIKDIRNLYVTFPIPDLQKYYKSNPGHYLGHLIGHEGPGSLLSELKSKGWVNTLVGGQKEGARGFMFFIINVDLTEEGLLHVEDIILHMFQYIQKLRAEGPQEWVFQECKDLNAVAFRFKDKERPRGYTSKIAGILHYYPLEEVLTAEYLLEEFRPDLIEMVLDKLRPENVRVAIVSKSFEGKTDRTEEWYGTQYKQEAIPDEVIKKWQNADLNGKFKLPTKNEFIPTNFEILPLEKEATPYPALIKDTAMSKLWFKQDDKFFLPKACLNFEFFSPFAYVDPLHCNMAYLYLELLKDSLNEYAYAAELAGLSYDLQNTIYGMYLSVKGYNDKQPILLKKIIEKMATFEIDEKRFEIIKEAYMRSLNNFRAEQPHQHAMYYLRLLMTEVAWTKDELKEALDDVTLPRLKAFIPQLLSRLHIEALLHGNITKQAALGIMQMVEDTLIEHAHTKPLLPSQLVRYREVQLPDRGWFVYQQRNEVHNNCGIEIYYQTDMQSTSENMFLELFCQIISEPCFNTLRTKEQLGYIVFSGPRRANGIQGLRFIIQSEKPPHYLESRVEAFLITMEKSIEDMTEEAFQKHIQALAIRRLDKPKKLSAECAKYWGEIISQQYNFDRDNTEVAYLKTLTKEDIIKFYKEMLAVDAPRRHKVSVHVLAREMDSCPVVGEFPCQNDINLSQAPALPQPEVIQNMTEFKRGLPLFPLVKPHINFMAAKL

Insulin-degrading enzyme [9] = target: T3, Insulin-degrading enzyme; experiment: cellular IDE activation of Abeta substrate cleavage – fluorescence polarization, HEK cells, dose response (AID 588439); format: functional, cell-based
Orexin receptor type 2 [10] = target: T1, Orexin receptor type 2; experiment: Counterscreen assay for antagonists of the orexin 1 receptor (OX1R; HCRTR1): Homogeneous Time Resolved Fluorescence (HTRF)-based cell-based dose response assay for antagonists of the orexin 2 receptor (OX2R; HCRTR2), run by assay provider.; format: functional
INS1 = experiment: INS-1E survival protection against cytokine death – cell-based, luminescence, retest, dose response (AID 449756); format: functional; conditions: Rattus norvegicus;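 note: cell death triggered by IL-1 beta plus TNF-alpha plus IFN-gamma mixture; protective hits raise ATP signal compared with cytokine alone wells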
[11] = as §1, with “Fluorescence-based” for “Homogeneous time resolved fluorescence (HTRF)-based”, “cell-based high throughput” for “cell-based”, “CHO” for “CHO-K1”; format: functional
[12] = target: T4, Orexin/Hypocretin receptor type 1 (Homo sapiens, UniProt O43613); experiment: Homogeneous Time Resolved Fluorescence (HTRF)-based cell-based high throughput dose response assay for antagonists of the orexin 1 receptor (OX1R; HCRTR1). [Related pubchem assays (depositor defined):AID434989, AID435008, AID463079, AID485270, AID492963, AID492964, AID492965, AID493232, AID504717, AID504718]; format: functional
T4 sequence (O43613 whole entry): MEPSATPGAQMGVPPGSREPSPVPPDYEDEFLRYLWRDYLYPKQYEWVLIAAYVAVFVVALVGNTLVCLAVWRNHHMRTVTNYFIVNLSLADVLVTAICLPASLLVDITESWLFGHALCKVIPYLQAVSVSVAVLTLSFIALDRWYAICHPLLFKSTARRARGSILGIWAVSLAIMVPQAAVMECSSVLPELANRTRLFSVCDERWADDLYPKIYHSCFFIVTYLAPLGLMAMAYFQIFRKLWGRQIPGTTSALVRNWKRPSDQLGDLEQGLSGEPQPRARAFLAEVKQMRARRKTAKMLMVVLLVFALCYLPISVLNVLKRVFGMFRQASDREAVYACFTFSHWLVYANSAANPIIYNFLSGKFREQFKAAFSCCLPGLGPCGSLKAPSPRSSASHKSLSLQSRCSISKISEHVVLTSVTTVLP

[13] = target: T4, Orexin/Hypocretin receptor type 1; experiment: Fluorescence-based cell-based high throughput dose response assay for antagonists of the orexin 1 receptor (OX1R; HCRTR1). [Related pubchem assays (depositor defined):AID434989, AID435008, AID463079, AID485270, AID492963, AID492964, AID492965, AID493232, AID504717, AID504718]; format: functional
HEK293 [14] = experiment: optical interference in Abeta FP readout, dose response, artefact control for IDE activator project, biochemical, fluorescence polarization (AID 588442); format: functional, cell-based; conditions: Homo sapiens
HEK293 [15] = experiment: membrane integrity loss in HEK cells – cell-based, fluorescence, cytotoxicity control for IDE activator project, dose response (AID 588440); format: functional; conditions: Homo sapiens;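 note: cytotoxicity by LDH release measuring loss of membrane integrity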

| Compound | IC50 [1] | AC50 [2] | AC50 [3] | AC50 [4] | AC50 [5] | AC50 [6] | also measured |
| --- | --- | --- | --- | --- | --- | --- | --- |
| CCCCC(=O)Nc1ccc(C(=O)NNC(=S)NC(=O)c2cccs2)cc1 | 63.5 µM (inactive) | – | – | – | – | – | – |
| Cn1c(NCc2c(O)ccc3ccccc23)nc2ccccc21 | – | 28.9 µM (active) | 40.6 µM (active) | 15.4 µM (active) | 58.1 µM (active) | 22.1 µM (active) | – |
| CCN(CC)c1ccc(-c2nnc(S)n2-c2ccccc2)cc1 | > 122 µM (inactive) | – | – | – | – | – | – |
| COc1ccc(OCc2n(CC(=O)OC3CC(C)CCC3C(C)C)c3ccccc3[n+]2C)cc1.[Cl-] (centres undefined) | – | 11 µM (active) | 17.2 µM (active) | 9.99 µM (active) | 9.49 µM (active) | 16.4 µM (active) | IC50 (Orexin receptor type 2 [7]): 8.9 µM (active); Absolute IC50 (XBP1) (X-box-binding protein 1): 10 µM; IC50 (CHO-K1): > 66.2 µM (inactive); EC50 (Insulin-degrading enzyme [8]): > 54.7 µM (inactive); EC50 (Insulin-degrading enzyme [9]): 15.5 µM (inactive); IC50 (Orexin receptor type 2 [10]): > 50 µM (inactive); AC50 (INS1): 3.9 µM (active); IC50 [11]: 15.3 µM (inactive); IC50 [12]: 63.1 µM (inactive); IC50 [13]: 8.69 µM (active); EC50 (HEK293 [14]): > 54.7 µM (inactive); IC50 (HEK293 [15]): 17 µM (inactive) |

Reference: ChEMBL document CHEMBL1201862, “PubChem BioAssay data set” (2004)
